Reference: publication PMC11167047 (Cell Death Discovery, 2024)

Tests used:
Experiment in all cases: kinome screen (33PanQinase)
Assay type in all cases: biochemical
EIF2AK3 = target: T1, EIF2AK3 (Homo sapiens, UniProt Q9NZJ5)
T1 construct: purchased Reaction Biology Europe GmbH (formerly ProQinase)
T1 sequence (Q9NZJ5 30-1116): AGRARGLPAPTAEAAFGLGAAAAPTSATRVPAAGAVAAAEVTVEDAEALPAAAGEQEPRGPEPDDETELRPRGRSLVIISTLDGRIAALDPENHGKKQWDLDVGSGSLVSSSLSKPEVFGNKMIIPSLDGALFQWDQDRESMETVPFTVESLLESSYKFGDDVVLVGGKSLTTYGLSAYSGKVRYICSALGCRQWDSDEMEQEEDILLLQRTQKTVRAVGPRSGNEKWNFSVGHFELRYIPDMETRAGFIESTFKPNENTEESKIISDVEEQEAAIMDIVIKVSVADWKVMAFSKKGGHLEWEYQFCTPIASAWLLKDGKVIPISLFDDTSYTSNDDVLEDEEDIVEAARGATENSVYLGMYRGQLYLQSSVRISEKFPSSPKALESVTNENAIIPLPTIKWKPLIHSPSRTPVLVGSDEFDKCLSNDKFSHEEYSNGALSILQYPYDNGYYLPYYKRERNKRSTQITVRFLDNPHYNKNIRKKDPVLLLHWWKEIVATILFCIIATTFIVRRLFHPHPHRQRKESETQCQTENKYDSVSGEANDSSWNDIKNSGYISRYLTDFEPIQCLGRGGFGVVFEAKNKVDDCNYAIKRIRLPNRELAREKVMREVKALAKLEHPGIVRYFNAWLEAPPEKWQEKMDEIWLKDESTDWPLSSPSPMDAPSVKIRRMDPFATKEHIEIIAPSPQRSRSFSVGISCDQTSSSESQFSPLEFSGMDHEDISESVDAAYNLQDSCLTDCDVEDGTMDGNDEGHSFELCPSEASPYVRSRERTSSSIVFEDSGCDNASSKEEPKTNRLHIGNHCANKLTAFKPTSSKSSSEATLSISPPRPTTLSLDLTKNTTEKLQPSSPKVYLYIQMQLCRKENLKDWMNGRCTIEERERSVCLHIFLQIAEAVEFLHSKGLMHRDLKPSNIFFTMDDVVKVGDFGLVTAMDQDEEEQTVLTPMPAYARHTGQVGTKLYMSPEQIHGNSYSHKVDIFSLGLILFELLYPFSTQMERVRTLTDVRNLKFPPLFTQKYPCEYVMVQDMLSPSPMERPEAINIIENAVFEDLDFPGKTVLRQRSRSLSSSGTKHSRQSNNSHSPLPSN
Method: (§1) The Kinome Screening was performed by Reaction Biology Europe GmbH (http://reactionbiology.com; Freiburg i. Br., Germany).

CLK2 = target: T2, CLK2 (Homo sapiens, UniProt P49760)
T2 construct: purchased Reaction Biology Europe GmbH (formerly ProQinase)
Method: as §1

PRK2 = target: T3, PRK2 (Homo sapiens, UniProt Q16513)
T3 construct: purchased Reaction Biology Europe GmbH (formerly ProQinase)
Method: as §1

ACK1 = target: T4, ACK1 (Homo sapiens, UniProt Q07912)
T4 construct: purchased Reaction Biology Europe GmbH (formerly ProQinase)
Method: as §1

MAP4K4 = target: T5, MAP4K4 (Homo sapiens, UniProt O95819)
T5 construct: purchased Reaction Biology Europe GmbH (formerly ProQinase)
Method: as §1

MST4 = target: T6, MST4 (Homo sapiens, UniProt Q9P289)
T6 construct: purchased Reaction Biology Europe GmbH (formerly ProQinase)
Method: as §1

ACVR2B = target: T7, ACVR2B (Homo sapiens, UniProt Q13705)
T7 construct: purchased Reaction Biology Europe GmbH (formerly ProQinase)
Method: as §1

TRKC = target: T8, TRKC (Homo sapiens, UniProt Q16288)
T8 construct: purchased Reaction Biology Europe GmbH (formerly ProQinase)
Method: as §1

LTK = target: T9, LTK (Homo sapiens, UniProt P29376)
T9 construct: purchased Reaction Biology Europe GmbH (formerly ProQinase)
Method: as §1

SLK = target: T10, SLK (Homo sapiens, UniProt Q9H2G2)
T10 construct: purchased Reaction Biology Europe GmbH (formerly ProQinase)
Method: as §1

RPS6KA6 = target: T11, RPS6KA6 (Homo sapiens, UniProt Q9UK32)
T11 construct: purchased Reaction Biology Europe GmbH (formerly ProQinase)
Method: as §1

JNK3 = target: T12, JNK3 (Homo sapiens, UniProt P53779)
T12 construct: purchased Reaction Biology Europe GmbH (formerly ProQinase)
Method: as §1

INSRR = target: T13, INSRR (Homo sapiens, UniProt P14616)
T13 construct: purchased Reaction Biology Europe GmbH (formerly ProQinase)
Method: as §1

MEKK2 = target: T14, MEKK2 (Homo sapiens, UniProt Q9Y2U5)
T14 construct: purchased Reaction Biology Europe GmbH (formerly ProQinase)
T14 sequence (Q9Y2U5 1-619): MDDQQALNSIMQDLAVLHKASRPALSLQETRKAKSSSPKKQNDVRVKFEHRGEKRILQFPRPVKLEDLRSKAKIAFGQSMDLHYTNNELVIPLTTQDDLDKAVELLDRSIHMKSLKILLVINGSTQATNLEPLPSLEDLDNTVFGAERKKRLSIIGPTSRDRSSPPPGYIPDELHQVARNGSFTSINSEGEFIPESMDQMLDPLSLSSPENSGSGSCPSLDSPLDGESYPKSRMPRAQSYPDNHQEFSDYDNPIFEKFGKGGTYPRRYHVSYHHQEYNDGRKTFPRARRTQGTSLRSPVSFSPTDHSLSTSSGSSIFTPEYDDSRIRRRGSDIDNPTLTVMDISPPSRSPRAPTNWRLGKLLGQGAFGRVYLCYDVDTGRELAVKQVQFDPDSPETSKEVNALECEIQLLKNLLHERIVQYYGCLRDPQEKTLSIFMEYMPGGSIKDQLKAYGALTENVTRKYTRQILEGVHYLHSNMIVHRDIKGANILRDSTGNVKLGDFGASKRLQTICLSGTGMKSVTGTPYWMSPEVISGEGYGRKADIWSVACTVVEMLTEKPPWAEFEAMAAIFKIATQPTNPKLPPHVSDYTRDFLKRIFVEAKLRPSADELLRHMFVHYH
Method: as §1

RET = target: T15, RET (Homo sapiens, UniProt P07949)
T15 construct: purchased Reaction Biology Europe GmbH (formerly ProQinase)
Method: as §1

T3 sequence (Q16513 whole entry): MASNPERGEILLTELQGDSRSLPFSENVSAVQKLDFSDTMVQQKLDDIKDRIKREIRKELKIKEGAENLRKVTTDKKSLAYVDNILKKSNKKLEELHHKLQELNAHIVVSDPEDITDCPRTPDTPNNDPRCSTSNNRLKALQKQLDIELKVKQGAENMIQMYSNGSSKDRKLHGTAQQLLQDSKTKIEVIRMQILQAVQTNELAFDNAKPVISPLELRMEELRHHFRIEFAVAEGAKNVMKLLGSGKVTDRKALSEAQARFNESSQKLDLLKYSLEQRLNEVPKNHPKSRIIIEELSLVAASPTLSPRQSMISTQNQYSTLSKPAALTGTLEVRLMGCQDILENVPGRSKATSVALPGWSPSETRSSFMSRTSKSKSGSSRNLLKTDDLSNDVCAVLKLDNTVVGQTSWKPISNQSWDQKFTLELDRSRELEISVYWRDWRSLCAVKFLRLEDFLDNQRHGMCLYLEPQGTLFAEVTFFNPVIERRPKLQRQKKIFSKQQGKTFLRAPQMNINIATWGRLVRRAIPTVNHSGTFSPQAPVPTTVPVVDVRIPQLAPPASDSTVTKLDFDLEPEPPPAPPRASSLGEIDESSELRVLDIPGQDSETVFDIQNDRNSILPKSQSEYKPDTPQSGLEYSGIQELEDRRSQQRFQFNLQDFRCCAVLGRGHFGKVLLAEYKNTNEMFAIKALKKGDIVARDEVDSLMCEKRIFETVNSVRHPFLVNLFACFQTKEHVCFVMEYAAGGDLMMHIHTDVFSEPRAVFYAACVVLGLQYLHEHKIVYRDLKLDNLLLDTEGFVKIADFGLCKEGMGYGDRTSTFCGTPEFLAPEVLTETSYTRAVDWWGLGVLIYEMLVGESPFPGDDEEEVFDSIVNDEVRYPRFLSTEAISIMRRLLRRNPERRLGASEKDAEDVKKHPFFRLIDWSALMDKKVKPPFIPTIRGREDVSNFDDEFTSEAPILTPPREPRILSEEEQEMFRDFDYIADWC
T15 sequence (P07949 29-1114): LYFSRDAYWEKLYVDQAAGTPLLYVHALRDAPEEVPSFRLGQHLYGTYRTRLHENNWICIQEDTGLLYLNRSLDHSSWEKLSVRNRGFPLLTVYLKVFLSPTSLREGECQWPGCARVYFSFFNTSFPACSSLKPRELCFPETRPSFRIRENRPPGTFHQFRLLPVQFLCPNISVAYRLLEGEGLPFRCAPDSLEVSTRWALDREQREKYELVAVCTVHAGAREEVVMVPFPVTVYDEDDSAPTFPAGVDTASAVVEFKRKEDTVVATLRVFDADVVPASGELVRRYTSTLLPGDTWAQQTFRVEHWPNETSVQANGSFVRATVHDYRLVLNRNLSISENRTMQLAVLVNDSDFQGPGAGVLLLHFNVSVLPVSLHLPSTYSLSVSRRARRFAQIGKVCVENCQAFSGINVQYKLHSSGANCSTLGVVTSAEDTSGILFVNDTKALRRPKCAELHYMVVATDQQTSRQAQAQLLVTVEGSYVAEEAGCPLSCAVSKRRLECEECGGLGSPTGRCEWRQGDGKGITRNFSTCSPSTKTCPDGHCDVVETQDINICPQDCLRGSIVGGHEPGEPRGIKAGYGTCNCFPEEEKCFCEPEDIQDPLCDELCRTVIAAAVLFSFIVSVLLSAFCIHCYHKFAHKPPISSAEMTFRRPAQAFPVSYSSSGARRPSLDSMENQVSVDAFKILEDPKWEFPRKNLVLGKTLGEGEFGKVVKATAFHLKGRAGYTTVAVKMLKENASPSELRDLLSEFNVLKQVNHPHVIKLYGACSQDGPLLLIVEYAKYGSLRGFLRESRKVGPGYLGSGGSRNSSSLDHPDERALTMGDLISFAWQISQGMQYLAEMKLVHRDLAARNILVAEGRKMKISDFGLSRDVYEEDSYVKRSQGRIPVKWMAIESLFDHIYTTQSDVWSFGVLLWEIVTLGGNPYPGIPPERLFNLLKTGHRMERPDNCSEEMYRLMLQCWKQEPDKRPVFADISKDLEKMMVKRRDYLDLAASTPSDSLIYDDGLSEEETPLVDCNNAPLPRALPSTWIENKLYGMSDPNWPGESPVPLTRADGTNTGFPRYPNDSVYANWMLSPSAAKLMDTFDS
T4 sequence (Q07912 whole entry): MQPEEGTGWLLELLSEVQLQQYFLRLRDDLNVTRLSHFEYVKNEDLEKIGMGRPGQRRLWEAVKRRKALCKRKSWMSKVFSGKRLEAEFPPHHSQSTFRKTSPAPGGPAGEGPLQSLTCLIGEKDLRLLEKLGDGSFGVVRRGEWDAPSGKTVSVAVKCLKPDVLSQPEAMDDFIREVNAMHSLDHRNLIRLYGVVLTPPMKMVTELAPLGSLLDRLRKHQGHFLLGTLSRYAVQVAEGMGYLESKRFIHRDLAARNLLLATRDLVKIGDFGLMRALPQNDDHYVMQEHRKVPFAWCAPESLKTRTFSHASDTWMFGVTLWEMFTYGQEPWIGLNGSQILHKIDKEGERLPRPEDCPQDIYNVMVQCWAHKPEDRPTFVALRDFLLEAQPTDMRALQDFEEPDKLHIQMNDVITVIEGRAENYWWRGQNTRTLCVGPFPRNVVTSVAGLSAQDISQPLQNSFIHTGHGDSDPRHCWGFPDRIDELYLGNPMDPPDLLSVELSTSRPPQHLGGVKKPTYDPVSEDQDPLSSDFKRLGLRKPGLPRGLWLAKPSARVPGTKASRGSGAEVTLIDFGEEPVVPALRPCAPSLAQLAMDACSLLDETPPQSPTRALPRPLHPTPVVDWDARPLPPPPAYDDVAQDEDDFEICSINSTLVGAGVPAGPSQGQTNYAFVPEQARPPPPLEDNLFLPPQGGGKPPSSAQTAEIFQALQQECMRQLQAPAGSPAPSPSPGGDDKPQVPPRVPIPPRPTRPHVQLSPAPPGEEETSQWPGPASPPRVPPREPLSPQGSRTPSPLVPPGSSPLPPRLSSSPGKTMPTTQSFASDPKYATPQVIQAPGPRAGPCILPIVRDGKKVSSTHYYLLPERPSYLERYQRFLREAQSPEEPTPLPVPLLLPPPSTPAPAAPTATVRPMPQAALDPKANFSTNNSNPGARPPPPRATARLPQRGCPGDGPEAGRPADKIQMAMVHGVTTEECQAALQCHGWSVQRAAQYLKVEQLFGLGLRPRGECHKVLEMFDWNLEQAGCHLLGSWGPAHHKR
T5 sequence (O95819 whole entry): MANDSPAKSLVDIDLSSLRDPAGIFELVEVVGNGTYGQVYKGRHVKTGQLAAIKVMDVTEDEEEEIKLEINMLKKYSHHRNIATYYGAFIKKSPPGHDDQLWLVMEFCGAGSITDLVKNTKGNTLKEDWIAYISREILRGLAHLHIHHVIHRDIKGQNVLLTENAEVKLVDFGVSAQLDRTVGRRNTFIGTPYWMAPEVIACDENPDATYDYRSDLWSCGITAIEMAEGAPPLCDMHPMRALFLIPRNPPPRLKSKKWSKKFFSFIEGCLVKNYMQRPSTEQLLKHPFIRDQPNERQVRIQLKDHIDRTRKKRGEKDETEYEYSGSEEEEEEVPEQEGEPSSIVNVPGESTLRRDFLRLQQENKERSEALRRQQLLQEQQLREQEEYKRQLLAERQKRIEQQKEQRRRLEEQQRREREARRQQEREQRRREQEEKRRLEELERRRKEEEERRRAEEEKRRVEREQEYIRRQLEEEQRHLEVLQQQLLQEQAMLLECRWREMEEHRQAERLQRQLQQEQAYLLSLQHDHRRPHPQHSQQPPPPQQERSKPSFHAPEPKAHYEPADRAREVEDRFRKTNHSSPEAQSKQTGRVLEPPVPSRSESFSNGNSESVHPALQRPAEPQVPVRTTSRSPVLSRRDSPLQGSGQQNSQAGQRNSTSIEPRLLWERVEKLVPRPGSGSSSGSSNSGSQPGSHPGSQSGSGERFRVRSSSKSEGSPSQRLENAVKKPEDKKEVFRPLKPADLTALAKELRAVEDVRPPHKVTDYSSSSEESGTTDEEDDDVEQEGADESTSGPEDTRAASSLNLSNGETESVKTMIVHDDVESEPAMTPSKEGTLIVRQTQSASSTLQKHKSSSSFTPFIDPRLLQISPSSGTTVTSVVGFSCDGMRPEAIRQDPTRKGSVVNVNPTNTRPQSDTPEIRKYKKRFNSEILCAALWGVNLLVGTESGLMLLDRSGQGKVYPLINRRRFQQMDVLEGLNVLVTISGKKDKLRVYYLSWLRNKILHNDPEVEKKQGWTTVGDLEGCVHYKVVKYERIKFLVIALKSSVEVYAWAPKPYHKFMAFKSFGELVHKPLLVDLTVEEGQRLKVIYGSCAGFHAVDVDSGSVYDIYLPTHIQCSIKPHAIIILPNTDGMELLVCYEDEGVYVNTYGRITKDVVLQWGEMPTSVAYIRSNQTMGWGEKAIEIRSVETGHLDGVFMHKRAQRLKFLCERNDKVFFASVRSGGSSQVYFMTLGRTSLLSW
T2 sequence (P49760 whole entry): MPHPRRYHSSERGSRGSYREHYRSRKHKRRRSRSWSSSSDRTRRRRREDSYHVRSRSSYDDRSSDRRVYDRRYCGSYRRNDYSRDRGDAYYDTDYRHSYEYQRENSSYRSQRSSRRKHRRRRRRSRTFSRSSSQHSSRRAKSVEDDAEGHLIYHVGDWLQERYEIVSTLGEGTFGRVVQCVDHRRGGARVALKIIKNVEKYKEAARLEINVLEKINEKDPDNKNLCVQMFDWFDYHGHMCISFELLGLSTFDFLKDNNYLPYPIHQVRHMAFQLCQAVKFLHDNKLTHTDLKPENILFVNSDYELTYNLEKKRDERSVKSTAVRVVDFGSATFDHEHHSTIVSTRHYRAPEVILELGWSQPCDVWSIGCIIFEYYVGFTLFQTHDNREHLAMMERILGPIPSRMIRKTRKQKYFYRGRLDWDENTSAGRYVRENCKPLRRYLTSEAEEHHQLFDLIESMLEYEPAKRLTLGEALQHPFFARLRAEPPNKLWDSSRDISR

COc1ccnc2[nH]cc(-c3cc(N)nc(N)c3)c12 [meriolin 16]
residual kinase activity (EIF2AK3; 0.03 µM): 87 % of control
residual kinase activity (EIF2AK3; 0.3 µM): 90 % of control
residual kinase activity (CLK2; 0.03 µM): 8 % of control
residual kinase activity (CLK2; 0.3 µM): 1 % of control
residual kinase activity (PRK2; 0.03 µM): 90 % of control
residual kinase activity (PRK2; 0.3 µM): 42 % of control
residual kinase activity (ACK1; 0.03 µM): 83 % of control
residual kinase activity (ACK1; 0.3 µM): 72 % of control
residual kinase activity (MAP4K4; 0.03 µM): 76 % of control
residual kinase activity (MAP4K4; 0.3 µM): 29 % of control
residual kinase activity (MST4; 0.03 µM): 78 % of control
residual kinase activity (MST4; 0.3 µM): 81 % of control
residual kinase activity (ACVR2B; 0.03 µM): 81 % of control
residual kinase activity (ACVR2B; 0.3 µM): 74 % of control
residual kinase activity (TRKC; 0.03 µM): 72 % of control
residual kinase activity (TRKC; 0.3 µM): 36 % of control
residual kinase activity (LTK; 0.03 µM): 110 % of control
residual kinase activity (LTK; 0.3 µM): 98 % of control
residual kinase activity (SLK; 0.03 µM): 83 % of control
residual kinase activity (SLK; 0.3 µM): 77 % of control
residual kinase activity (RPS6KA6; 0.03 µM): 84 % of control
residual kinase activity (RPS6KA6; 0.3 µM): 48 % of control
residual kinase activity (JNK3; 0.03 µM): 73 % of control
residual kinase activity (JNK3; 0.3 µM): 68 % of control
residual kinase activity (INSRR; 0.03 µM): 97 % of control
residual kinase activity (INSRR; 0.3 µM): 96 % of control
residual kinase activity (MEKK2; 0.03 µM): 95 % of control
residual kinase activity (MEKK2; 0.3 µM): 91 % of control
residual kinase activity (RET; 0.03 µM): 106 % of control
residual kinase activity (RET; 0.3 µM): 100 % of control

c1ccc(CNc2cc(-c3c[nH]c4ncccc34)ccn2)cc1 [meriolin 36]
residual kinase activity (EIF2AK3; 0.3 µM): 81 % of control
residual kinase activity (EIF2AK3; 3 µM): 74 % of control
residual kinase activity (CLK2; 0.3 µM): 1 % of control
residual kinase activity (CLK2; 3 µM): 2 % of control
residual kinase activity (PRK2; 0.3 µM): 8 % of control
residual kinase activity (PRK2; 3 µM): 0 % of control
residual kinase activity (ACK1; 0.3 µM): 59 % of control
residual kinase activity (ACK1; 3 µM): 15 % of control
residual kinase activity (MAP4K4; 0.3 µM): 6 % of control
residual kinase activity (MAP4K4; 3 µM): 2 % of control
residual kinase activity (MST4; 0.3 µM): 52 % of control
residual kinase activity (MST4; 3 µM): 12 % of control
residual kinase activity (ACVR2B; 0.3 µM): 22 % of control
residual kinase activity (ACVR2B; 3 µM): 5 % of control
residual kinase activity (TRKC; 0.3 µM): 18 % of control
residual kinase activity (TRKC; 3 µM): 2 % of control
residual kinase activity (LTK; 0.3 µM): 46 % of control
residual kinase activity (LTK; 3 µM): 11 % of control
residual kinase activity (SLK; 0.3 µM): 4 % of control
residual kinase activity (SLK; 3 µM): 1 % of control
residual kinase activity (RPS6KA6; 0.3 µM): 13 % of control
residual kinase activity (RPS6KA6; 3 µM): 3 % of control
residual kinase activity (JNK3; 0.3 µM): 54 % of control
residual kinase activity (JNK3; 3 µM): 13 % of control
residual kinase activity (INSRR; 0.3 µM): 85 % of control
residual kinase activity (INSRR; 3 µM): 39 % of control
residual kinase activity (MEKK2; 0.3 µM): 66 % of control
residual kinase activity (MEKK2; 3 µM): 18 % of control
residual kinase activity (RET; 0.3 µM): 61 % of control
residual kinase activity (RET; 3 µM): 12 % of control
